Measurements as given in the supplement of paper PMC8612539.

Columns and labels:
Enterococcus spp. = experiment: minimum inhibitory concentration (MIC)
Description: (§1)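 Broth microdilution MIC (Sensititre BOPO7F bovine plate, CLSI methods) of 19 antimicrobials against field isolates of P. multocida, M. haemolytica, H. somni (deep nasopharyngeal swabs) and E. coli, Enterococcus spp. (rectal swabs) from weaned dairy heifers. Incubation 16-24 h at 35 C. MIC is the lowest concentration preventing visible growth. Values with <= or > lie at the tested range limits. Trimethoprim-sulfamethoxazole is given as the trimethoprim component of a 1:19 mixture.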

Pasteurella multocida = experiment: minimum inhibitory concentration (MIC)
Description: as §1

[1] = isolate (source animal id): 168
[2] = isolate (source animal id): 169
[3] = isolate (source animal id): 171
[4] = isolate (source animal id): 175
[5] = isolate (source animal id): 177
[6] = isolate (source animal id): 182
[7] = isolate (source animal id): 195
[8] = isolate (source animal id): 197
[9] = isolate (source animal id): 223
[10] = isolate (source animal id): 241
[11] = isolate (source animal id): 247
[12] = isolate (source animal id): 250
[13] = isolate (source animal id): 285
[14] = isolate (source animal id): 290
[15] = isolate (source animal id): 296
[16] = isolate (source animal id): 310

Measured: minimum inhibitory concentration

COc1cc(NS(=O)(=O)c2ccc(N)cc2)nc(OC)n1 [sulfadimethoxine]
> 256 µg/mL: Enterococcus spp.; isolate (source animal id): 2 | Enterococcus spp.; isolate (source animal id): 35 | Enterococcus spp.; isolate (source animal id): 42 | Enterococcus spp.; isolate (source animal id): 44 | Enterococcus spp.; isolate (source animal id): 79 | Enterococcus spp.; isolate (source animal id): 88 | Enterococcus spp.; isolate (source animal id): 91 | Enterococcus spp.; isolate (source animal id): 92 | Enterococcus spp.; isolate (source animal id): 111 | Enterococcus spp.; isolate (source animal id): 122 | Enterococcus spp.; isolate (source animal id): 123 | Enterococcus spp.; isolate (source animal id): 133 | Enterococcus spp.; isolate (source animal id): 158 | Enterococcus spp.; [1] | Enterococcus spp.; [2] | Enterococcus spp.; [3] | Enterococcus spp.; [4] | Enterococcus spp.; [5] | Enterococcus spp.; isolate (source animal id): 181 | Enterococcus spp.; [6] | Enterococcus spp.; isolate (source animal id): 183 | Enterococcus spp.; isolate (source animal id): 187 | Enterococcus spp.; isolate (source animal id): 190 | Enterococcus spp.; isolate (source animal id): 194 | Enterococcus spp.; [7] | Enterococcus spp.; [8] | Enterococcus spp.; isolate (source animal id): 211 | Enterococcus spp.; isolate (source animal id): 214 | Enterococcus spp.; isolate (source animal id): 222 | Enterococcus spp.; [9] | Enterococcus spp.; isolate (source animal id): 228 | Enterococcus spp.; isolate (source animal id): 230 | Enterococcus spp.; isolate (source animal id): 235 | Enterococcus spp.; isolate (source animal id): 236 | Enterococcus spp.; isolate (source animal id): 239 | Enterococcus spp.; [10] | Enterococcus spp.; isolate (source animal id): 244 | Enterococcus spp.; isolate (source animal id): 246 | Enterococcus spp.; [11] | Enterococcus spp.; [12] | Enterococcus spp.; isolate (source animal id): 252 | Enterococcus spp.; isolate (source animal id): 268 | Enterococcus spp.; isolate (source animal id): 282 | Enterococcus spp.; [13] | Enterococcus spp.; isolate (source animal id): 289 | Enterococcus spp.; [14] | Enterococcus spp.; [15] | Enterococcus spp.; isolate (source animal id): 298 | Enterococcus spp.; isolate (source animal id): 301 | Enterococcus spp.; [16] | Enterococcus spp.; isolate (source animal id): 320 | Enterococcus spp.; isolate (source animal id): 331 | Enterococcus spp.; isolate (source animal id): 333 | Enterococcus spp.; isolate (source animal id): 341 | Pasteurella multocida; isolate (source animal id): 10 | Pasteurella multocida; isolate (source animal id): 11 | Pasteurella multocida; isolate (source animal id): 12 | Pasteurella multocida; isolate (source animal id): 19 | Pasteurella multocida; isolate (source animal id): 23 | Pasteurella multocida; isolate (source animal id): 26 | Pasteurella multocida; isolate (source animal id): 98 | Pasteurella multocida; isolate (source animal id): 104 | Pasteurella multocida; isolate (source animal id): 115 | Pasteurella multocida; isolate (source animal id): 117 | Pasteurella multocida; isolate (source animal id): 118 | Pasteurella multocida; isolate (source animal id): 121 | Pasteurella multocida; isolate (source animal id): 124 | Pasteurella multocida; isolate (source animal id): 125 | Pasteurella multocida; isolate (source animal id): 128 | Pasteurella multocida; isolate (source animal id): 131 | Pasteurella multocida; isolate (source animal id): 135 | Pasteurella multocida; isolate (source animal id): 136 | Pasteurella multocida; isolate (source animal id): 140 | Pasteurella multocida; isolate (source animal id): 144 | Pasteurella multocida; isolate (source animal id): 146 | Pasteurella multocida; isolate (source animal id): 150 | Pasteurella multocida; isolate (source animal id): 151 | Pasteurella multocida; isolate (source animal id): 153 | Pasteurella multocida; isolate (source animal id): 155 | Pasteurella multocida; isolate (source animal id): 157 | Pasteurella multocida; isolate (source animal id): 160 | Pasteurella multocida; isolate (source animal id): 164 | Pasteurella multocida; isolate (source animal id): 165 | Pasteurella multocida; isolate (source animal id): 167 | Pasteurella multocida; [1] | Pasteurella multocida; [2] | Pasteurella multocida; isolate (source animal id): 170 | Pasteurella multocida; [3] | Pasteurella multocida; isolate (source animal id): 172 | Pasteurella multocida; isolate (source animal id): 173 | Pasteurella multocida; isolate (source animal id): 174 | Pasteurella multocida; [4] | Pasteurella multocida; isolate (source animal id): 176 | Pasteurella multocida; [5] | Pasteurella multocida; isolate (source animal id): 178 | Pasteurella multocida; isolate (source animal id): 179 | Pasteurella multocida; [6] | Pasteurella multocida; isolate (source animal id): 192 | Pasteurella multocida; isolate (source animal id): 193 | Pasteurella multocida; [7] | Pasteurella multocida; isolate (source animal id): 196 | Pasteurella multocida; [8] | Pasteurella multocida; isolate (source animal id): 198 | Pasteurella multocida; isolate (source animal id): 199 | Pasteurella multocida; isolate (source animal id): 200 | Pasteurella multocida; isolate (source animal id): 201 | Pasteurella multocida; isolate (source animal id): 203 | Pasteurella multocida; isolate (source animal id): 204 | Pasteurella multocida; isolate (source animal id): 205 | Pasteurella multocida; isolate (source animal id): 206 | Pasteurella multocida; isolate (source animal id): 207 | Pasteurella multocida; isolate (source animal id): 208 | Pasteurella multocida; isolate (source animal id): 209 | Pasteurella multocida; isolate (source animal id): 210 | Pasteurella multocida; isolate (source animal id): 213 | Pasteurella multocida; isolate (source animal id): 216 | Pasteurella multocida; [9] | Pasteurella multocida; isolate (source animal id): 227 | Pasteurella multocida; isolate (source animal id): 229 | Pasteurella multocida; isolate (source animal id): 233 | Pasteurella multocida; isolate (source animal id): 234 | Pasteurella multocida; isolate (source animal id): 237 | Pasteurella multocida; [10] | Pasteurella multocida; isolate (source animal id): 245 | Pasteurella multocida; [11] | Pasteurella multocida; [12] | Pasteurella multocida; isolate (source animal id): 254 | Pasteurella multocida; isolate (source animal id): 255 | Pasteurella multocida; isolate (source animal id): 258 | Pasteurella multocida; isolate (source animal id): 261 | Pasteurella multocida; isolate (source animal id): 262 | Pasteurella multocida; isolate (source animal id): 269 | Pasteurella multocida; isolate (source animal id): 270 | Pasteurella multocida; isolate (source animal id): 274 | Pasteurella multocida; isolate (source animal id): 275 | Pasteurella multocida; isolate (source animal id): 276 | Pasteurella multocida; isolate (source animal id): 277 | Pasteurella multocida; isolate (source animal id): 278 | Pasteurella multocida; isolate (source animal id): 279 | Pasteurella multocida; isolate (source animal id): 280 | Pasteurella multocida; isolate (source animal id): 284 | Pasteurella multocida; [13] | Pasteurella multocida; isolate (source animal id): 287 | Pasteurella multocida; [14] | Pasteurella multocida; isolate (source animal id): 294 | Pasteurella multocida; isolate (source animal id): 295 | Pasteurella multocida; [15] | Pasteurella multocida; isolate (source animal id): 307 | Pasteurella multocida; [16] | Pasteurella multocida; isolate (source animal id): 311 | Pasteurella multocida; isolate (source animal id): 312 | Pasteurella multocida; isolate (source animal id): 313 | Pasteurella multocida; isolate (source animal id): 315 | Pasteurella multocida; isolate (source animal id): 316
